PMC8745342, “In Vitro and In Silico Kinetic Studies of Patented 1,7-diEthyl and 1,7-diMethyl Aminoalkanol Derivatives as New Inhibitors of Acetylcholinesterase” (International Journal of Molecular Sciences, 2021)

Experiments:
[1] = target: T1, Acetylcholinesterase human (AChE) (Homo sapiens, UniProt P22303); experiment: AChE inhibition kinetics, Ellman's method combined with capillary electrophoresis; type: biochemical; settings: for type of AChE inhibition: from Lineweaver-Burk plots, Km and Vmax; for IC50: from activity (%) versus inhibitor concentration plots; for Tilt Angle of Lineweaver-Burk line: acetylthiocholine 0.36–46.00 mM, n = 6; for amount of 4,4-dithio-bis-acid nitrobenzoic (DBAN) product in the presence of inhibitor: 0.66 mM without inhibitors
T1 construct: purchased Sigma-Aldrich (Poznań, Poland)
T1 sequence (P22303 32-614): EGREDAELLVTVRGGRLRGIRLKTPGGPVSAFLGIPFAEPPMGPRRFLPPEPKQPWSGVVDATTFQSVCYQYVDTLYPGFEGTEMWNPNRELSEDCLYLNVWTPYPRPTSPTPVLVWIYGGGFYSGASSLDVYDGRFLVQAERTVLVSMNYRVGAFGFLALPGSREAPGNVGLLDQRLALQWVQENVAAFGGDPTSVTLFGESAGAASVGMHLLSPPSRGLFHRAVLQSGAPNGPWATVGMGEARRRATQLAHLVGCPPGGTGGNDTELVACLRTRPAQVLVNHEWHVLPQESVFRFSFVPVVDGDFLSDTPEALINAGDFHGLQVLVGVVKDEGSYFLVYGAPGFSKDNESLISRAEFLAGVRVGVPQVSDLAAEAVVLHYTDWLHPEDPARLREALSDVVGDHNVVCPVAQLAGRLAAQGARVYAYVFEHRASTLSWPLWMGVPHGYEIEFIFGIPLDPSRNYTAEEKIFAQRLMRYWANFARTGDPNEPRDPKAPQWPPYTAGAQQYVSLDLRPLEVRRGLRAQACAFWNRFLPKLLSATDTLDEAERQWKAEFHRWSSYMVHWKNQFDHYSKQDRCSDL
Text: In this work, we used the combined Ellman’s method with the capillary electrophoresis method developed by us for the determination of 4,4-dithio-bis-acid nitrobenzoic (DBAN) (main enzyme reaction product) in the presence of acetylthiocholine (ACth), 5-thio-2-nitrobenzoic acid (NTB), 5,5′-dithio-bis-2-nitrobenzoic acid (DTNB), acetylcholinesterase (AChE) and inhibitors (I), (II), (III) and (IV) of acetylcholinesterase. For the development of this method, we optimized the buffer pH, separating background electrolyte (BGE) concentration, wavelength, temperature, and voltage. […] All these separation systems were tested to achieve the best separation parameters, resolution, and analysis time for all components in the reaction mixture. […] Separation was carried out at 15 kV. Each sample was added to the capillary under hydrodynamic injection.
The samples were injected under 5 psi pressure for 3 s. The experiments were performed under constant current conditions (85 μA). […] Before the assay, the capillary was conditioned with 0.1 M NaOH for 10 min at 10 psi and with H2O for 10 min at 10 psi. Then, it was electro conditioned with the running buffer for 20 min at +10 kV and pressure-conditioned with the running buffer for 10 min at 10 psi. Before each injection, the capillary was washed with 1 M NaOH for 2 min, then with H2O for 2 min, and finally with BGE for 2 min. At the end of each working day, the capillary was rinsed for 10 min with 0.1 M NaOH, 10 min with BGE, and 10 min with deionized water at 15 psi. Then, the capillary was exposed to air for 10 min at 20 psi and left empty.
Sample mixtures containing 4,4-dithio-bis-acid nitrobenzoic (DBAN) (main enzyme reaction product) in the presence of acetylthiocholine (ACth), 5-thio-2-nitrobenzoic acid (NTB), 5,5′-dithio-bis-2-nitrobenzoic acid (DTNB), acetylcholinesterase (AChE) and inhibitors (I), (II), (III) and (IV) were introduced automatically by pressure injection (with 2 psi pressure for 5 s on the sample solution). At the day’s end, vials with anode and cathode buffer were emptied and running buffer was filled again at the start of the next day before the analysis.
Acetylcholinesterase activity was determined according to the method by Ellman et al. and according to the procedure described by Rosilene R et al. but slightly modified. […] The tubes containing solutions were preincubated for 2 min at 25 °C. Then, 0.1 mL […] AChE was introduced into tubes 1–9, at an interval of 1 min. All 10 samples were incubated for 3 min at 25 °C. After incubation, the analytical samples were introduced into the capillary.
The inhibition constants (Ki) were calculated from the plotted Lineweaver–Burk curves for the four concentrations of the inhibitors (I), (II), (III) and (IV). The method was based on two steps (Figure 8).

AChE = settings: model AChE inhibitors; read-out: IC50 (inhibition potency); cited from earlier work
[2] = inhibitor 0.08 mM, acetylthiocholine 0.36 mM
[3] = inhibitor 0.08 mM, acetylthiocholine 0.72 mM
[4] = inhibitor 0.08 mM, acetylthiocholine 1.44 mM
[5] = inhibitor 0.08 mM, acetylthiocholine 2.88 mM
[6] = inhibitor 0.08 mM, acetylthiocholine 5.75 mM
[7] = inhibitor 0.08 mM, acetylthiocholine 11.50 mM
[8] = inhibitor 0.08 mM, acetylthiocholine 23.00 mM
[9] = inhibitor 0.08 mM, acetylthiocholine 34.50 mM
[10] = inhibitor 0.08 mM, acetylthiocholine 46.00 mM

SMILES	type of AChE inhibition [1]	IC50 [1] [µM]	Vmax ([1]; inhibitor 0.01 mM) [mM/min]	Tilt Angle of Lineweaver-Burk line ([1]; inhibitor 0.01 mM) [°]	Vmax ([1]; inhibitor 0.02 mM) [mM/min]	Vmax ([1]; inhibitor 0.04 mM) [mM/min]	Tilt Angle of Lineweaver-Burk line ([1]; inhibitor 0.04 mM) [°]	Vmax ([1]; inhibitor 0.06 mM) [mM/min]	Tilt Angle of Lineweaver-Burk line ([1]; inhibitor 0.06 mM) [°]	Vmax ([1]; inhibitor 0.08 mM) [mM/min]	1/Vo, mean [1, 2] [min/mM]	Peak area of product (4,4-dithio-bis-acid nitrobenzoic), mean [1, 2]	V0 (reaction speed), mean [1, 2] [mM/min]	1/Vo, mean [1, 3] [min/mM]	Peak area of product (4,4-dithio-bis-acid nitrobenzoic), mean [1, 3]	V0 (reaction speed), mean [1, 3] [mM/min]	1/Vo, mean [1, 4] [min/mM]	Peak area of product (4,4-dithio-bis-acid nitrobenzoic), mean [1, 4]	V0 (reaction speed), mean [1, 4] [mM/min]	amount of 4,4-dithio-bis-acid nitrobenzoic (DBAN) product in the presence of inhibitor [1, 4] [mM]	further results
CCC12C(=O)C(CC)(C(c3ccccc3)=C1c1ccccc1)C1C(=O)N(CC(O)CNC(C)C)C(=O)C12 (stereo not shown) [Compound (I)]	competitive	37 ± 1	0.63 ± 0.02	59.52 ± 0.04	0.62 ± 0.03	0.64 ± 0.01	65.42 ± 0.05	0.65 ± 0.01	69.66 ± 0.05	0.65 ± 0.01	9.30	49766	0.11	5.46	91263	0.18	3.55	128810	0.28	0.52	1/Vo, mean [1, 5]: 2.30 min/mM; Peak area of product (4,4-dithio-bis-acid nitrobenzoic), mean [1, 5]: 171159; V0 (reaction speed), mean [1, 5]: 0.43 mM/min; 1/Vo, mean [1, 6]: 2.05 min/mM; Peak area of product (4,4-dithio-bis-acid nitrobenzoic), mean [1, 6]: 207149; V0 (reaction speed), mean [1, 6]: 0.49 mM/min; 1/Vo, mean [1, 7]: 1.80 min/mM; Peak area of product (4,4-dithio-bis-acid nitrobenzoic), mean [1, 7]: 231267; V0 (reaction speed), mean [1, 7]: 0.56 mM/min; 1/Vo, mean [1, 8]: 1.70 min/mM; Peak area of product (4,4-dithio-bis-acid nitrobenzoic), mean [1, 8]: 247792; V0 (reaction speed), mean [1, 8]: 0.59 mM/min; 1/Vo, mean [1, 9]: 1.55 min/mM; Peak area of product (4,4-dithio-bis-acid nitrobenzoic), mean [1, 9]: 250475; V0 (reaction speed), mean [1, 9]: 0.65 mM/min; 1/Vo, mean [1, 10]: 1.50 min/mM; Peak area of product (4,4-dithio-bis-acid nitrobenzoic), mean [1, 10]: 251643; V0 (reaction speed), mean [1, 10]: 0.67 mM/min; Tilt Angle of Lineweaver-Burk line ([1]; inhibitor 0.08 mM): 70.32 ± 0.03 °
CCC12C(=O)C(CC)(C(c3ccccc3)=C1c1ccccc1)C1C(=O)N(CC(O)CN(C)C)C(=O)C12 (stereo not shown) [Compound (II)]	competitive	39 ± 1	0.62 ± 0.03	59.46 ± 0.03	0.63 ± 0.02	0.65 ± 0.01	65.19 ± 0.06	0.65 ± 0.01	69.02 ± 0.05	0.65 ± 0.01	9.19	56086	0.11	5.40	102853	0.19	3.50	145167	0.29	0.58	Tilt Angle of Lineweaver-Burk line ([1]; inhibitor 0.02 mM): 59.60 ± 0.08 °; 1/Vo, mean [1, 5]: 2.30 min/mM; Peak area of product (4,4-dithio-bis-acid nitrobenzoic), mean [1, 5]: 192894; V0 (reaction speed), mean [1, 5]: 0.43 mM/min; 1/Vo, mean [1, 6]: 2.05 min/mM; Peak area of product (4,4-dithio-bis-acid nitrobenzoic), mean [1, 6]: 233453; V0 (reaction speed), mean [1, 6]: 0.49 mM/min; 1/Vo, mean [1, 7]: 1.80 min/mM; Peak area of product (4,4-dithio-bis-acid nitrobenzoic), mean [1, 7]: 260635; V0 (reaction speed), mean [1, 7]: 0.56 mM/min; 1/Vo, mean [1, 8]: 1.70 min/mM; Peak area of product (4,4-dithio-bis-acid nitrobenzoic), mean [1, 8]: 279258; V0 (reaction speed), mean [1, 8]: 0.59 mM/min; 1/Vo, mean [1, 9]: 1.55 min/mM; Peak area of product (4,4-dithio-bis-acid nitrobenzoic), mean [1, 9]: 282281; V0 (reaction speed), mean [1, 9]: 0.65 mM/min; 1/Vo, mean [1, 10]: 1.50 min/mM; Peak area of product (4,4-dithio-bis-acid nitrobenzoic), mean [1, 10]: 283597; V0 (reaction speed), mean [1, 10]: 0.67 mM/min; Tilt Angle of Lineweaver-Burk line ([1]; inhibitor 0.08 mM): 70.02 ± 0.04 °
CC(C)NCC(O)CN1C(=O)C2C(C1=O)C1(C)C(=O)C2(C)C(c2ccccc2)=C1c1ccccc1 (stereo not shown) [Compound (III)]	competitive	33 ± 1	0.63 ± 0.01	60.01 ± 0.03	0.63 ± 0.02	0.64 ± 0.03	67.38 ± 0.04	0.64 ± 0.03	70.42 ± 0.02	0.63 ± 0.02	10.1	39497	0.10	5.70	72431	0.18	3.55	102230	0.28	0.41	Tilt Angle of Lineweaver-Burk line ([1]; inhibitor 0.02 mM): 62.28 ± 0.03 °; 1/Vo, mean [1, 5]: 2.40 min/mM; Peak area of product (4,4-dithio-bis-acid nitrobenzoic), mean [1, 5]: 135840; V0 (reaction speed), mean [1, 5]: 0.42 mM/min; 1/Vo, mean [1, 6]: 2.05 min/mM; Peak area of product (4,4-dithio-bis-acid nitrobenzoic), mean [1, 6]: 164404; V0 (reaction speed), mean [1, 6]: 0.49 mM/min; 1/Vo, mean [1, 7]: 1.80 min/mM; Peak area of product (4,4-dithio-bis-acid nitrobenzoic), mean [1, 7]: 183545; V0 (reaction speed), mean [1, 7]: 0.56 mM/min; 1/Vo, mean [1, 8]: 1.70 min/mM; Peak area of product (4,4-dithio-bis-acid nitrobenzoic), mean [1, 8]: 196660; V0 (reaction speed), mean [1, 8]: 0.59 mM/min; 1/Vo, mean [1, 9]: 1.55 min/mM; Peak area of product (4,4-dithio-bis-acid nitrobenzoic), mean [1, 9]: 198790; V0 (reaction speed), mean [1, 9]: 0.65 mM/min; 1/Vo, mean [1, 10]: 1.50 min/mM; Peak area of product (4,4-dithio-bis-acid nitrobenzoic), mean [1, 10]: 199716; V0 (reaction speed), mean [1, 10]: 0.64 mM/min; Tilt Angle of Lineweaver-Burk line ([1]; inhibitor 0.08 mM): 71.50 ± 0.03 °
CN(C)CC(O)CN1C(=O)C2C(C1=O)C1(C)C(=O)C2(C)C(c2ccccc2)=C1c1ccccc1 (stereo not shown) [Compound (IV)]	competitive	35 ± 1	0.63 ± 0.02	59.58 ± 0.04	0.63 ± 0.02	0.64 ± 0.03	65.58 ± 0.03	0.63 ± 0.01	69.76 ± 0.03	0.64 ± 0.03	9.85	45817	0.10	5.40	84020	0.19	3.50	118587	0.29	0.48	Tilt Angle of Lineweaver-Burk line ([1]; inhibitor 0.02 mM): 60.09 ± 0.04 °; 1/Vo, mean [1, 5]: 2.30 min/mM; Peak area of product (4,4-dithio-bis-acid nitrobenzoic), mean [1, 5]: 157575; V0 (reaction speed), mean [1, 5]: 0.43 mM/min; 1/Vo, mean [1, 6]: 2.05 min/mM; Peak area of product (4,4-dithio-bis-acid nitrobenzoic), mean [1, 6]: 190708; V0 (reaction speed), mean [1, 6]: 0.49 mM/min; 1/Vo, mean [1, 7]: 1.80 min/mM; Peak area of product (4,4-dithio-bis-acid nitrobenzoic), mean [1, 7]: 212913; V0 (reaction speed), mean [1, 7]: 0.56 mM/min; 1/Vo, mean [1, 8]: 1.70 min/mM; Peak area of product (4,4-dithio-bis-acid nitrobenzoic), mean [1, 8]: 228126; V0 (reaction speed), mean [1, 8]: 0.59 mM/min; 1/Vo, mean [1, 9]: 1.55 min/mM; Peak area of product (4,4-dithio-bis-acid nitrobenzoic), mean [1, 9]: 230596; V0 (reaction speed), mean [1, 9]: 0.65 mM/min; 1/Vo, mean [1, 10]: 1.50 min/mM; Peak area of product (4,4-dithio-bis-acid nitrobenzoic), mean [1, 10]: 231671; V0 (reaction speed), mean [1, 10]: 0.65 mM/min; Tilt Angle of Lineweaver-Burk line ([1]; inhibitor 0.08 mM): 70.40 ± 0.03 °
